This is an account of results in paper PMC9154793, “Design, synthesis, and biological evaluation of triazole-pyrimidine-methylbenzonitrile derivatives as dual A2A/A2B adenosine receptor antagonists” (Journal of Enzyme Inhibition and Medicinal Chemistry, 2022).

The melting point is the temperature, or range, at which the solid turns liquid.

For one series, the system named is PBMCs. Briefly: T-cell activation assay (IL-2 production in PBMCs, NECA-suppressed, anti-CD3/anti-CD28). In kind it is cell-based. The conditions noted are these: 10, 100, 1000 nM antagonist with 1000 nM NECA; ELISA after 48 h; Figure 3. As to the method:
The effector functions of T cells that express A2 ARs can be evaluated by measuring specific cytokine production[4]^,[9]^,[38]. In this study, the efficiencies of selected antagonists on IL-2 production (T cell activation) were examined. […] However, when the antagonist was added, the concentration of IL-2 was restored, indicating the inhibition effect of NECA was blocked.
Figure 3. The efficiencies of selected compounds for IL-2 production. The efficiencies of selected antagonists on T-cell activation at 10 nM, 100 nM, and 1000 nM were tested in the presence or absence of 1000 nM NECA. The DMSO control was tested in the absence of both antagonists and NECA. The NECA control was tested without antagonists in the presence of 1000 nM NECA.
Cryopreserved PBMCs (Allcells) were thawed and recovered in RPMI1640 medium overnight before being used. And compounds to be tested were diluted with DMSO to 100 folds of working concentrations. Then PBMCs were added to 96-well U bottom plate (2.5 × 10^5 cells per well). To the cells, 2 μl of NECA and 2 μl of each diluted compound (a final concentration of DMSO is 2%) were added. Then, cells were incubated at 37 °C under 5% CO2 for 1 h. Add 100 μl anti-CD3 (2 μg/ml) and anti-CD28 antibody (2 μg/ml) to each well and cells were cultured for 48 h. After 48 h, supernatants were collected and IL-2 concentration was detected by ELISA.

Series [1] can be described thus: Metabolic stability in human liver microsomes. In kind it is in vitro ADME. As to the method: (§1) The metabolic stability is an important focus for further compound optimisation. Compounds 7f, 7i, and AB928 were chosen to evaluate the stability in rat liver microsomes and human liver microsomes. For the microsomal metabolic experiment, 7-ethoxycoumarin (7-EC) was used as a control. As shown in Table 4 (see Supporting information for raw data), the CLint(liver) of 7-EC in rats and humans was 10.0 and 9.0 ml/min/g liver, respectively, indicating the experimental test system was reliable.
(§2) Metabolic stabilities of compounds 7f, 7i, and AB928 in liver microsomes were studied with pooled human (male) liver microsomes solution (20 mg/ml) and male Sprague–Dawley rats pooled liver microsomes solution (20 mg/ml) purchased from Research Institute for Liver Diseases (Shanghai) Co. Ltd. Both liver microsomes solutions (140 μl) were diluted by 3948 μl of water and 280 μl of phosphate buffered saline. The assay procedure: 640 μl of diluted liver microsomes solution was added to a solution of compound working solution (16 μl, 25 μM in DMSO) and the mixed solution was incubated at 37 °C for 5 min. Then 160 μl of NADPH generating system was added and take out 100 μl from the mixed solution was added 200 μl of acetonitrile solution to stop the reaction at the set incubation time (0 min, 10 min, 20 min, 30 min, 40 min, 50 min, and 60 min). All stopped reaction solutions were vortex mixed (3 min) and centrifuged (10,000 rpm, 4 °C for 10 min). Then 50 μl of the supernatant was analysed by UPLC-MS/MS system (details of the analytical method see Supporting information). […]
(§3) 8. Metabolic stability in human and rat liver microsomes
(§4) Metabolic stabilities of compounds 7f, 7i and AB928 in liver microsomes were studied with pooled human (male) liver microsomes solution (20 mg/mL) and male Sprague - Dawley rats pooled liver microsomes solution (20 mg/mL) purchased from Research Institute for Liver Diseases (Shanghai) Co. Ltd. Both liver microsomes solutions (140 μL) were diluted by 3948 μL of water and 280 μL of phosphate buffered saline. The assay procedure: 640 μL of diluted liver microsomes solution was added to a solution of compound working solution (16 μL, 25 μM in DMSO) and the mixed solution was […]
(§5) (1 picture or pasted object on this page, not shown here) […]
(§6) incubated at 37 ℃ for 5 min. Then 160 μL of NADPH generating system was added and take out 100 μL from the mixed solution was added 200 μL of acetonitrile solution to stop the reaction at the set incubation time (0 min, 10 min, 20 min, 30 min, 40 min, 50 min, and 60 min). All stopped reaction solutions were vortex mixed (3 min) and centrifuged (10000 rpm, 4 ℃ for 10 min). Then 50 μL of the supernatant was analyzed […]
(§7) 8.2 Chromatography and mass spectrometry conditions
(§8) UPLC was performed using an […] UPLC system (Waters, Milford, MA, […]
(§9) USA). Separation was achieved on a Waters BEH C18 column(100 mm × 2.1 mm， 1.7 μm) at 40 ℃. The injection volume of the sample solution was 5 μL. The mobile phase consisted of water (0.1% formic acid and ammonium acetate) and acetonitrile solution (20:80, v/v) at a flow rate of 0.4 mL/min within a running time of 6 min. Mass spectrometric analysis was performed on a Waters Xevo TQ-S triple quadrupole instrument using electrospray ionization in positive mode. Quantification was performed using multiple reaction monitoring (MRM) mode to monitor precursor-product ion transitions (Table S1).
(§10) Table S1. Conditions of MRM Detection. […]
(§11) Table S2. Raw data of metabolic stability in human and rat liver microsomes. […]
(§12) (min) Hum Rat Hum Rat Hum Rat Hum Rat
(§13) 9. Analytical method of pharmacokinetics assay
(§14) Animal experiments were performed according to the institutional ethical guidelines on animal care and approved by the Institute Animal Care and Use Committee at Binzhou […]
(§15) Female Bal b/c mice (sourced from Jinan Pengyue Experimental Animal Breeding […]
(In general: Liver microsomes are a subcellular fraction often used to study metabolism.)

Series [2] in a line: Metabolic stability in rat liver microsomes. In kind it is in vitro ADME, Sprague–Dawley rats. The conditions noted are these: for remaining at 10 min, 0.49 µM / remaining at 20 min, 0.49 µM / remaining at 0.5 h, 0.49 µM / remaining at 40 min, 0.49 µM / remaining at 50 min, 0.49 µM / remaining at 1 h, 0.49 µM / half-life at 0.49 µM: male, Sprague-Dawley, pooled rat liver microsomes; for remaining at 10 min, 0.49 µM / remaining at 20 min, 0.49 µM / remaining at 0.5 h, 0.49 µM / remaining at 40 min, 0.49 µM / remaining at 50 min, 0.49 µM / remaining at 1 h, 0.49 µM / CLint(liver) Rat: rat liver microsomes; for remaining at 0.5 h, 0.49 µM: 30 min; for remaining at 1 h, 0.49 µM: 60 min, read-out: Remaining (%, T = 60min) Rat; for half-life at 0.49 µM: rat, read-out: T1/2 Rat. The protocol: as §1, §2, §3, §4, §5, §6, §7, §8, §9, §10, §11, §12, §13, §14, §15

Each structure is given as a SMILES string. Entries after “also recorded” stand apart in the source; their conditions may differ.

`Cc1c(C#N)cccc1-c1cc(-c2cn(Cc3cccc(C#N)n3)nn2)nc(N)n1` [Compound 7f, 6-((4-(2-Amino-6-(3-cyano-2-methylphenyl)pyrimidin-4-yl)-1H-1,2,3-triazol-1-yl)methyl)picolinonitrile] showed a melting point of 147 to 148 °C. Further, in the series with PBMCs, the “IL-2 production (T cell activation)” value is recorded as “sufficient activities to stimulate IL-2 production”. The “metabolism on human liver microsomes (in words)” value in series [1] is “hardly metabolised on human liver microsomes”. In series [1] (male, human, microsomes), the fraction remaining at 10 min, 0.49 µM was found to be 96.3%; the fraction remaining at 20 min, 0.49 µM came out at 96.5%; the share remaining at 0.5 h, 0.49 µM was 107%; the fraction remaining at 40 min, 0.49 µM is 98.4%. In series [1] (male, human, microsomes), the amount remaining at 50 min, 0.49 µM was found to be 102% and the fraction remaining at 1 h, 0.49 µM came out at 105%. Also, in series [2], the share remaining at 10 min, 0.49 µM is 84.7%; the share remaining at 20 min, 0.49 µM is 88%; the amount remaining at 0.5 h, 0.49 µM was found to be 77.2%; the share remaining at 40 min, 0.49 µM turned out to be 73.7%. For the same molecule, in series [2], the share remaining at 50 min, 0.49 µM came out at 64.2%; the fraction remaining at 1 h, 0.49 µM stood at 64%; the half-life at 0.49 µM came out at 1.56 h; the “CLint(liver) Rat” value is 0.78 mL/min/g.

In turn, `Cc1c(C#N)cccc1-c1cc(-c2cn(Cc3cccc(C(N)=O)n3)nn2)nc(N)n1` [Compound 7i, 6-((4-(2-Amino-6-(3-cyano-2-methylphenyl)pyrimidin-4-yl)-1H-1,2,3-triazol-1-yl)methyl)picolinamide] had a melting point of 151 to 152 °C. Moreover, the “IL-2 production (T cell activation)” value in the series on PBMCs is on record as “sufficient activities to stimulate IL-2 production; also recorded: better activity than AB928”. Besides, in series [1], the “metabolism on human liver microsomes (in words)” value is recorded as “hardly metabolised on human liver microsomes”. Further, the “CLint(liver) Hum” value in series [1] (human, microsomes) was found to be 0.06 mL/min/g. Moreover, in series [1] (male, human, microsomes), the half-life at 0.49 µM worked out at 19.2 h; the amount remaining at 10 min, 0.49 µM amounted to 98%; the share remaining at 20 min, 0.49 µM was determined as 108%; the amount remaining at 0.5 h, 0.49 µM was 116%. Also, in series [1] (male, human, microsomes), the amount remaining at 40 min, 0.49 µM was determined as 101%; the fraction remaining at 50 min, 0.49 µM is 95%; the share remaining at 1 h, 0.49 µM turned out to be 98.8%. In series [2], the amount remaining at 10 min, 0.49 µM was found to be 74.9%; the amount remaining at 20 min, 0.49 µM was found to be 72.8%; the amount remaining at 0.5 h, 0.49 µM came to 67.8%; the share remaining at 40 min, 0.49 µM was determined as 61%. In series [2], the amount remaining at 50 min, 0.49 µM stood at 53.8%; the fraction remaining at 1 h, 0.49 µM was determined as 50.7%; the half-life at 0.49 µM turned out to be 1.12 h; the “CLint(liver) Rat” value was 1.08 mL/min/g.
